Here are results for one substance from US20010043936A1, “CHEMICAL COMPOSITION” (priority 1997, published 2001).

Assay [1] has as its system Mixed Fungi. Put plainly: Inoculation test of preserved cream formulation with mixed fungi, surviving organisms counted. The settings on record: control: IPBC 25 ppm, PhOH 0 ppm in cream. The format is cell-based. On the procedure: A batch of a cream formulation comprising an oil-in-water emulsion containing 7.5 wt % Crodex A (an emulsifying wax ex-Croda Chemicals), 5.0 wt % propylene glycol and 87.5 wt % sterile water was prepared using a homogenising mixer.
Portions of the cream formulation were admixed with a preservative system comprising iodopropynyl butyl carbamate and phenoxyethanol at varying weight ratios of iodopropynyl butyl carbamate to phenoxyethanol. In each case the content of the iodopropynyl butyl carbamate in the cream formulation was kept constant at a level of 0.0025 wt % with respect of the total weight of the formulation.
Each portion of the formulation was divided into two. One specimen was inoculated with 7.5×10^7 mixed bacteria per g of cream. The other specimen was inoculated with 2.4×10^6 mixed fungi per g of cream.
For each specimen the number of surviving organisms was determined at 0 hours, […] and 72 hours after inoculation.

Assay [2] concerns Mixed Bacteria. Briefly: Inoculation test of preserved cream formulation with mixed bacteria, surviving organisms counted. The assay is classed as cell-based. The settings on record: control: IPBC 25 ppm, PhOH 0 ppm in cream.

In the case of iodopropynyl butyl carbamate [IPBC], the “organisms surviving, Mixed Fungi, 0 Hours” value in assay [1] (0 Hours) is 8 × 10^5. The “organisms surviving, Mixed Fungi, 24 Hours” value in assay [1] (24 Hours) is given as 1.2 × 10^5. In addition, in assay [1] (72 Hours), the “organisms surviving, Mixed Fungi, 72 Hours” value is 5.2 × 10^4. The “organisms surviving, Mixed Bacteria, 0 Hours” value in assay [2] (0 Hours) is given as “TNTC”. Moreover, in assay [2] (24 Hours), the “organisms surviving, Mixed Bacteria, 24 Hours” value is 1.8 × 10^6. In addition, the “organisms surviving, Mixed Bacteria, 72 Hours” value in assay [2] (72 Hours) is reported as 2.9 × 10^5.
